ChEMBL document CHEMBL1201862, “PubChem BioAssay data set” (2004)
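Five concentrations, 48 hours, 96-well plates. Abbreviation: GI50, concentration required for 50% inhibition of growth.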 Activity calls are given as the source filed them. No stated cut-off is given here; in the data, active = GI50 up to about 1.1 µM and inactive = higher.

Tests used:
Experiment in all cases: NCI anticancer screen, dose series, 48 h
SNB-19 = test system: SNB-19
LOX IMVI = test system: LOX IMVI
ACHN = test system: ACHN
A498 = test system: A498
OVCAR-4 = test system: OVCAR-4
HL-60 = test system: HL-60
U-251 = test system: U-251
M14 = test system: M14
NCI-H522 = test system: NCI-H522
MDA-MB-231 = test system: MDA-MB-231
RPMI-8226 = test system: RPMI-8226
CAKI-1 = test system: CAKI-1
SN12C = test system: SN12C
A549 = test system: A549
HCC 2998 = test system: HCC 2998
TK-10 = test system: TK-10
DU-145 = test system: DU-145
SK-MEL-28 = test system: SK-MEL-28
MDA-MB-435 = test system: MDA-MB-435
UACC-257 = test system: UACC-257

Measured: GI50

CCC(=O)C1(N2CCOCC2)CCN(CCCC(=O)c2ccc(F)cc2)CC1
inactive: SNB-19 > 100 µM | LOX IMVI > 100 µM | ACHN > 100 µM | A498 > 100 µM | OVCAR-4 > 100 µM | HL-60 > 100 µM | U-251 > 100 µM | M14 > 100 µM | NCI-H522 > 100 µM | MDA-MB-231 > 100 µM | RPMI-8226 > 100 µM | CAKI-1 > 100 µM | SN12C > 100 µM | A549 > 100 µM | HCC 2998 > 100 µM | TK-10 > 100 µM | DU-145 > 100 µM | SK-MEL-28 > 100 µM | MDA-MB-435 > 100 µM

Cc1[nH]c2c(c1Cc1ccccc1)C1=NC=C(O)NN1C=N2
inactive: SNB-19 > 100 µM | ACHN 44.3 µM | A498 > 100 µM | OVCAR-4 > 100 µM | HL-60 > 100 µM | U-251 70.1 µM | M14 > 100 µM | NCI-H522 43.7 µM | MDA-MB-231 > 100 µM | RPMI-8226 51.5 µM | CAKI-1 > 100 µM | SN12C > 100 µM | A549 > 100 µM | HCC 2998 53.8 µM | TK-10 74.1 µM | DU-145 > 100 µM | SK-MEL-28 > 100 µM | MDA-MB-435 > 100 µM | UACC-257 > 100 µM

O=C1NC(=O)/C(=C/c2ccc(S(=O)(=O)N/N=C\C(O)C(O)C(O)C(O)CO)cc2)N1 (stereo unspecified)
inactive: SNB-19 > 100 µM | LOX IMVI > 100 µM | ACHN > 100 µM | A498 > 100 µM | OVCAR-4 > 100 µM | HL-60 > 100 µM | U-251 > 100 µM | M14 > 100 µM | MDA-MB-231 > 100 µM | RPMI-8226 > 100 µM | CAKI-1 > 100 µM | SN12C > 100 µM | A549 > 100 µM | HCC 2998 > 100 µM | TK-10 > 100 µM | DU-145 > 100 µM | SK-MEL-28 > 100 µM | MDA-MB-435 > 100 µM | UACC-257 > 100 µM

N#Cc1ccc(-c2nc3c(N)nc(-c4ccccc4)nc3o2)cc1
inactive: SNB-19 55.1 µM | LOX IMVI > 100 µM | ACHN 26.9 µM | A498 > 100 µM | OVCAR-4 17.3 µM | HL-60 > 100 µM | U-251 5.11 µM | M14 > 100 µM | NCI-H522 25 µM | MDA-MB-231 13.3 µM | RPMI-8226 > 100 µM | CAKI-1 > 100 µM | SN12C > 100 µM | A549 88.7 µM | HCC 2998 > 100 µM | TK-10 > 100 µM | DU-145 84.1 µM | SK-MEL-28 > 100 µM | MDA-MB-435 > 100 µM | UACC-257 > 100 µM

CONC(C)=O
inactive: SNB-19 > 100 µM | LOX IMVI > 100 µM | ACHN > 100 µM | A498 > 100 µM | HL-60 > 100 µM | U-251 > 100 µM | M14 > 100 µM | NCI-H522 > 100 µM | MDA-MB-231 > 100 µM | RPMI-8226 > 100 µM | CAKI-1 > 100 µM | SN12C > 100 µM | A549 > 100 µM | HCC 2998 > 100 µM | TK-10 > 100 µM | DU-145 > 100 µM | SK-MEL-28 > 100 µM | MDA-MB-435 > 100 µM | UACC-257 > 100 µM

COc1cc(CNNC(N)=S)cc(OC)c1OC
inactive: SNB-19 > 100 µM | LOX IMVI > 100 µM | ACHN > 100 µM | A498 > 100 µM | HL-60 > 100 µM | U-251 > 100 µM | M14 > 100 µM | NCI-H522 > 100 µM | MDA-MB-231 > 100 µM | RPMI-8226 > 100 µM | CAKI-1 6.27 µM | SN12C > 100 µM | A549 > 100 µM | HCC 2998 > 100 µM | TK-10 > 100 µM | DU-145 > 100 µM | SK-MEL-28 > 100 µM | MDA-MB-435 > 100 µM | UACC-257 > 100 µM

CN(CCCNC(=O)c1n[nH]c2c1ccc1ccccc12)CCCNC(=O)c1n[nH]c2c1ccc1ccccc12
inactive: SNB-19 18.8 µM | LOX IMVI 12.5 µM | ACHN 17.6 µM | A498 17.8 µM | OVCAR-4 17.3 µM | HL-60 1.67 µM | U-251 14.8 µM | M14 4.3 µM | NCI-H522 16.8 µM | MDA-MB-231 10.9 µM | CAKI-1 16.8 µM | SN12C 16.3 µM | A549 19.3 µM | HCC 2998 1.9 µM | TK-10 17.9 µM | DU-145 15.7 µM | SK-MEL-28 2.09 µM | MDA-MB-435 2.62 µM | UACC-257 4.24 µM

O=C(O)C1CC2C3CCC2C1C3=O (stereo unspecified)
inactive: SNB-19 > 100 µM | LOX IMVI > 100 µM | ACHN > 100 µM | A498 > 100 µM | OVCAR-4 > 100 µM | HL-60 > 100 µM | U-251 > 100 µM | M14 > 100 µM | NCI-H522 > 100 µM | MDA-MB-231 > 100 µM | CAKI-1 > 100 µM | SN12C > 100 µM | A549 > 100 µM | HCC 2998 > 100 µM | TK-10 > 100 µM | DU-145 > 100 µM | SK-MEL-28 > 100 µM | MDA-MB-435 > 100 µM | UACC-257 > 100 µM

CCOC(=O)/C(=C\c1ccc(F)cc1)C(C)=O
inactive: SNB-19 33.8 µM | LOX IMVI 17.5 µM | ACHN 21.6 µM | A498 17.8 µM | OVCAR-4 28 µM | HL-60 19.5 µM | U-251 19.1 µM | M14 22.9 µM | NCI-H522 14.3 µM | MDA-MB-231 22.6 µM | RPMI-8226 21.8 µM | CAKI-1 24.3 µM | SN12C 63 µM | A549 45.3 µM | HCC 2998 13.5 µM | TK-10 21.6 µM | DU-145 23.2 µM | MDA-MB-435 30.1 µM | UACC-257 19.2 µM

CO/C=C(/C(=O)OC)c1ccccc1[C@@H]1CC1c1cccc(F)c1 (stereo partly specified)
inactive: SNB-19 53.3 µM | ACHN 23.2 µM | A498 25.6 µM | OVCAR-4 20.2 µM | HL-60 18.4 µM | U-251 30.5 µM | M14 19.8 µM | NCI-H522 14.2 µM | MDA-MB-231 29.9 µM | RPMI-8226 19.5 µM | CAKI-1 18.6 µM | SN12C 29.6 µM | A549 20.6 µM | HCC 2998 25 µM | TK-10 37.9 µM | DU-145 33 µM | SK-MEL-28 39.4 µM | MDA-MB-435 19.3 µM | UACC-257 19.9 µM
